Like-named read-outs stand apart in the source and are kept apart here.
What was measured:
Vero E6 cells = details: read-out: Cytotoxicity CC50 Vero E6 MEM
HTR2A = biological target: T1, HTR2A (Homo sapiens, UniProt P28223); assay: Safety47 Calcium Flux HTR2A; type: cell-based; details: for Emax: read-out: Max Response; for EC50: read-out: RC50 (EC50); for IC50: read-out: RC50 (IC50)
T1 construct: purchased Eurofins Panlab Safety47 Safety Scan

hERG = biological target: T2, hERG (Homo sapiens, UniProt Q12809); assay: Safety47 Ion Channel hERG; type: cell-based; details: Blocker; for IC50: read-out: RC50 (IC50); for Emax: human, read-out: Max Response
T2 construct: purchased Eurofins Panlab (Safety47 Safety Scan, contract panel)

in vitro = details: African green monkey
DCAF7 = DCAF7 (Homo sapiens, UniProt P61962); assay: Microscale thermophoresis (MST) of DCAF7 and BC18630; details: read-out: Kd (MST binding coefficient)
CNR1 = biological target: T3, CNR1 (Homo sapiens, UniProt P21554); assay: Safety47 cAMP CNR1; type: cell-based; details: for Emax: read-out: Max Response; for EC50: read-out: RC50 (EC50); for IC50: read-out: RC50 (IC50)
T3 construct: purchased Eurofins Panlab Safety47 Safety Scan

[1] = test system: TFEB transcriptional targets; assay: RNA-seq of DCAF7 inhibitor-treated BEAS-2B cells; type: cell-based, human; details: 3 μM, 18 hours
[2] = test system: hepatic endolysosomal capacity; assay: Murine model of hepatic lysosomal activity (dextran cascade blue uptake); type: in vivo, C57BL/6 mice; details: 50 mg/kg i.p. daily for 4 days
SARS-CoV-2 = assay: In vivo hamster SARS-CoV-2 infection assay; parameters: species or system Syrian golden hamster
lysosomal pH = assay: Lysosomal pH (lysosensor yellow/blue) in OC43-infected BEAS-2B cells; type: cell-based, human; details: OC43 7 hours, 18 hours pretreatment, 100 nM
HTR1B = biological target: T4, HTR1B (Homo sapiens, UniProt P28222); assay: Safety47 cAMP HTR1B; type: cell-based; details: for Emax: read-out: Max Response; for EC50: read-out: RC50 (EC50); for IC50: read-out: RC50 (IC50)
T4 construct: purchased Eurofins Panlab (Safety47 Safety Scan, contract panel)

[3] = test system: SARS-CoV-2 (USA-WA-1/2020); type: in vivo, K18-hACE2 mice; details: for Survival (mice survived): BID thereafter, until day 10

T1 sequence (P28223 whole entry): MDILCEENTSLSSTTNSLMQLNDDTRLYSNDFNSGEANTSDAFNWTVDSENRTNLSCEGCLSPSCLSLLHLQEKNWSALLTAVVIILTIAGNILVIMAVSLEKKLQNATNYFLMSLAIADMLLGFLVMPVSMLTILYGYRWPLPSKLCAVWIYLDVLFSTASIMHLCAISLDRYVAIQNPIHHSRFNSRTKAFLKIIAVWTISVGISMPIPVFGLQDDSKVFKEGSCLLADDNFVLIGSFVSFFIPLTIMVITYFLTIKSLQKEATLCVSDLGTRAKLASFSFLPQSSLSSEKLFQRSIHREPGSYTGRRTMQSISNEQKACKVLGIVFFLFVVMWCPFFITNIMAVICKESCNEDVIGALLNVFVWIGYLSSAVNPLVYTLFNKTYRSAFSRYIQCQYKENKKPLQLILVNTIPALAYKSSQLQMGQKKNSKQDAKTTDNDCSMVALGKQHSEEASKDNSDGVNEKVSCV
T2 sequence (Q12809 whole entry): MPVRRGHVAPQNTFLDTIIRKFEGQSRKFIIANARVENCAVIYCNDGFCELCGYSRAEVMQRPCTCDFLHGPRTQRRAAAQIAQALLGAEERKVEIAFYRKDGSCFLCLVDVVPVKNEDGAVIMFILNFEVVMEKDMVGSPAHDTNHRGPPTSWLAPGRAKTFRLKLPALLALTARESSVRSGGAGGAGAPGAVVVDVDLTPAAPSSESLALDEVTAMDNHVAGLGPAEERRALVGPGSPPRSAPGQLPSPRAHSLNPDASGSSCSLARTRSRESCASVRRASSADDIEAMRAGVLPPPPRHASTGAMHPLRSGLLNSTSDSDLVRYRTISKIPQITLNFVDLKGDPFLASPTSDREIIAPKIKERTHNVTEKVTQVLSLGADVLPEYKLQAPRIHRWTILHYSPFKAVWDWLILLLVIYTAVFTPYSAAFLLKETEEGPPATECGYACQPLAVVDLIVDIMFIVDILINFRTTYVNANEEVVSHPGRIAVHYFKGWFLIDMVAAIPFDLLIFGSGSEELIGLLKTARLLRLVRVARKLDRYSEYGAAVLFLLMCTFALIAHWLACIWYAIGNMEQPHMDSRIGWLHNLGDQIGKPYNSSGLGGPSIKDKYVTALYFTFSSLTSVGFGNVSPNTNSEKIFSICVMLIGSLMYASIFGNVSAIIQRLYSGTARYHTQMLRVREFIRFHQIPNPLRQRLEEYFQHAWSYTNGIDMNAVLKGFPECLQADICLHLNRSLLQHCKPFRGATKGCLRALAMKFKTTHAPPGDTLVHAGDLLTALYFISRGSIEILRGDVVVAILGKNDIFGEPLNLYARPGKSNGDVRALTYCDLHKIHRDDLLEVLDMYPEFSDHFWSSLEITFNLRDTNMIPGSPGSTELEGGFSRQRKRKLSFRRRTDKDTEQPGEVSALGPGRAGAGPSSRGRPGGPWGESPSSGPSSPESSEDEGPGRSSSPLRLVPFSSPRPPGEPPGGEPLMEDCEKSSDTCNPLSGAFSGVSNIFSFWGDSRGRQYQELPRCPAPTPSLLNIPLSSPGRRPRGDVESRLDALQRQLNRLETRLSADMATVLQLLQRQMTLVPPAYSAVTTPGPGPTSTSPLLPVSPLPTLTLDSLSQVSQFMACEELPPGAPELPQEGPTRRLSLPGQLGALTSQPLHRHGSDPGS
T4 sequence (P28222 whole entry, species assumed): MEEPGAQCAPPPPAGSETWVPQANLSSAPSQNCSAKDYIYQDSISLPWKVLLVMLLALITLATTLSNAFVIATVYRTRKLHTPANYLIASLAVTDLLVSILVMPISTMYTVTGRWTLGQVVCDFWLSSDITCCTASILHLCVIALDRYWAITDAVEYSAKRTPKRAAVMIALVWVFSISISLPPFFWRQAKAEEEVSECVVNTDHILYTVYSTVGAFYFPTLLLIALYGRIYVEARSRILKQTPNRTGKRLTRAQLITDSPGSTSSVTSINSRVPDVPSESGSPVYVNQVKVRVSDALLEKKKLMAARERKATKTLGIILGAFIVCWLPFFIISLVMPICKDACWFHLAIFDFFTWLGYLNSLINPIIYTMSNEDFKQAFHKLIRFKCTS
T3 sequence (P21554 whole entry): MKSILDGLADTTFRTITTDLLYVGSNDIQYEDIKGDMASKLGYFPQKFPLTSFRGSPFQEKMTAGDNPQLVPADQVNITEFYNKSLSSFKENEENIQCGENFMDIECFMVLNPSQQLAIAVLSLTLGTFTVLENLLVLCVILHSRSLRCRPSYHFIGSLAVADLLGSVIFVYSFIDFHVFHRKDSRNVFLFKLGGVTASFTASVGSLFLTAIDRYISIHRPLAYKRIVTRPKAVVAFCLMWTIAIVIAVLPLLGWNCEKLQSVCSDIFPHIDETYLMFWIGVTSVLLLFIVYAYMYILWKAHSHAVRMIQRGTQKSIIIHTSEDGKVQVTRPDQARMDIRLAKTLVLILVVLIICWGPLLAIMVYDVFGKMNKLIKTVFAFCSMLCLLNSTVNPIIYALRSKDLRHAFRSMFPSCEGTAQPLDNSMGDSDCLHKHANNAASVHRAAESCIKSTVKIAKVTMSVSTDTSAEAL
Sequence of DCAF7 (P61962 whole entry): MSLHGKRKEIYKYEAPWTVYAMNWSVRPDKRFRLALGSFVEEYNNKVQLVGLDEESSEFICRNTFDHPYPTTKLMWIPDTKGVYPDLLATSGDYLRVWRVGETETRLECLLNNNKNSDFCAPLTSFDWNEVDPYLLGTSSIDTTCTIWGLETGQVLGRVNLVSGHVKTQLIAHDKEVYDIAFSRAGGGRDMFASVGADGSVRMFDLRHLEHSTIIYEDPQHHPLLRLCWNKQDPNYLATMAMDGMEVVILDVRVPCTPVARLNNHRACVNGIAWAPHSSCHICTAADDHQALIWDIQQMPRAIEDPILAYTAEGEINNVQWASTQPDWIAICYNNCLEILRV

Cl.c1ccc2c(Nc3ccc4[nH]ccc4c3)nc(-c3ccncc3)nc2c1 [BC18630, N-1H-indol-5-yl-2-pyridin-4-ylquinazolin-4-amine hydrochloride]
CC50 (Vero E6 cells): > 10 µM | Emax (HTR2A; Agonist): 4.44% | EC50 (HTR2A; Agonist): > 10 µM | Emax (HTR2A; Antagonist): 22.5% | IC50 (HTR2A; Antagonist): > 10 µM | IC50 (hERG): > 10 µM | Emax (hERG): 6.14% | CC50 (in vitro): > 10 µM | Kd (DCAF7): ~4.38 µM | Emax (CNR1; Agonist): 0.8% | EC50 (CNR1; Agonist): > 10 µM | Emax (CNR1; Antagonist): 26.9% | IC50 (CNR1; Antagonist): > 10 µM | Transcripts previously identified as TFEB transcriptional targets [1]: notable increase | Mouse hepatic endolysosomal capacity [2]: increased | NP-positive epithelial staining (IHC of lung slices) (SARS-CoV-2; 4 dpi): notably reduced | Observed levels of lung injury (SARS-CoV-2; H&E histology): mitigated | Lung viral load reduction (SARS-CoV-2; higher dose (50 mg/kg oral BID), 4 and 6 dpi): > 90% | Lung viral titer (PFU) (SARS-CoV-2; oral BID 20 and 50 mg/kg, all time points (2, 4, 6 dpi)): dose-dependently reduced | Virally induced lysosomal alkalization (lysosomal pH) (lysosomal pH): inhibited this virally induced alkalization | Emax (HTR1B; Agonist): 12.5% | EC50 (HTR1B; Agonist): > 10 µM | Emax (HTR1B; Antagonist): 5.74% | IC50 (HTR1B; Antagonist): > 10 µM | Viral titer in mouse lungs ([3]; 3 dpi, both treatments (pre and post), 40 mg/kg oral BID): substantialy decreased | TFEB IHC signal in the airways ([3]; mouse lung, 6 dpi): increase | Survival (mice survived) ([3]; post-treat: 40 mg/kg 12 hours after infection): 2/5 | Survival (mice survived) ([3]; pre-treat: 40 mg/kg 24 hours before infection): 3/5

Cl.Fc1cc(Nc2nc(-c3ccncc3)nc3ncccc23)cc2cc[nH]c12 [BC18813, N-(7-fluoro-1H-indol-5-yl)-2-pyridin-4-ylpyrido[2,3-d]pyrimidin-4-amine hydrochloride]
Emax (HTR2A; Agonist): 0.95% | EC50 (HTR2A; Agonist): > 10 µM | Emax (HTR2A; Antagonist): 25.6% | IC50 (HTR2A; Antagonist): > 10 µM | IC50 (hERG): > 10 µM | Emax (hERG): 4.86% | Curve Bottom (CNR1; Agonist): 0 | Curve Top (CNR1; Agonist): 100 | Hill (CNR1; Agonist): 1.07 | Emax (CNR1; Agonist): 61% | EC50 (CNR1; Agonist): 6.11 µM | Emax (CNR1; Antagonist): 0% | IC50 (CNR1; Antagonist): > 10 µM | Emax (HTR1B; Agonist): 27.4% | EC50 (HTR1B; Agonist): > 10 µM | Emax (HTR1B; Antagonist): 0.13% | IC50 (HTR1B; Antagonist): > 10 µM

— PMC12136031 (Science Advances, 2025)
